Experimental findings from patent US20230322723A1, “COMPOUNDS FOR SUPPRESSING EGFR MUTANT CANCER AND PHARMACEUTICAL USE THEREOF” (J2H BIOTECH INC., priority 2020, published 2023) are described below.

The nature of series [1]: Pharmacokinetic evaluation after single oral administration to ICR mice. In kind it is in vivo. The following applies: for half-life / AUC(0-t): mouse, ICR mice, single oral dose 5 mg/kg, plasma; for AUC(0-t): read-out: AUC0-24; for AUC compared to the corresponding compounds: 69, 70, 75, 78, 82 vs compounds 53 and 65. The protocol: Pharmacokinetic tests for the compounds of the present invention were conducted as below. After a single oral administration of the compound of the present invention to ICR mice, the concentration of the compound over time was followed up and analyzed.
The compound of the present invention was suspended in 10% DMSO/90% (30% HPbCD aqueous solution) and orally administered to mice at a dose of 5 mg/kg. Blood was collected at a fixed time and plasma was separated. Drug analysis was performed using HPLC (XBridge column C18, Waters, mobile phase 0.1% formic acid:acetonitrile (30:70, %/%)) and MS/MS (ESI positive, MRM). Mouse blood plasma and each commercially available standard solution were mixed at a ratio of 9:1 to prepare and calibrate at concentrations of […] 5,000 ng/mL. In addition, the preparation of QC samples was prepared by mixing the mouse blood plasma and the standard solution for QC at a ratio of 9:1, and prepared to be concentrations of 100, 750 and 2,500 ng/mL. 100 μL of the plasma sample was transferred to a centrifugation tube, and 10 μL of the internal standard solution and 300 μL of methanol were added, followed by mixing for about 30 seconds for pretreatment. The tube was centrifuged at 3,000×g (4° C.) for about 5 minutes, and the supernatant was taken and transferred to an LC vial and injected into the instrument. Then, the concentration of the compound in mouse plasma was quantified by applying a previously validated assay. For pharmacokinetic parameters, the program WinNonlin 5.2 (Pharsight, USA) was used. AUC0-t, AUC0-∞, Cmax, Tmax, and t1/2 were calculated by Noncompartment modeling (best fit). The pharmacokinetic parameter results were expressed as the mean (Mean) and standard deviation (SD), and were statistically processed using the SPSS program (Statistical Package for the Social Sciences, 10.0K, USA).

Series [2] has as its target T1, EGFR^L858R+T790M+C797S (Homo sapiens, UniProt P00533, C797S/L858R/T790M).
T1 construct: expressed in transfected cells; host or cells: Ba/F3
Nature of the series: EGFR protein degradation test (Western blot) in Ba/F3 cells expressing mutant EGFR L858R+T790M+C797S (LTC). The settings on record: compounds at 0.1 μM and 1 μM, 24 hours, Western blot with EGFR antibody. In kind it is cell-based. In outline: (§1)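 Ba/F3 cells expressing wild-type EGFR, del19+T790M+C797S or L858R+T790M+C797S EGFR were treated with compound at 0.1 μM and 1 μM for 24 h. Lysates (30 μg) were analysed by SDS-PAGE and EGFR Western blot, with bands quantified densitometrically.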

Series [3] deals with EGFR^del19+T790M+C797S. Nature of the series: EGFR protein degradation test (Western blot) in Ba/F3 cells expressing mutant EGFR del19+T790M+C797S (DTC). In kind it is cell-based. The following applies: compounds at 0.1 μM and 1 μM, 24 hours, Western blot with EGFR antibody. The method, boiled down:
as §1
In general terms: In western blotting, separated proteins are transferred to a membrane and probed.

T1 sequence (P00533 25-1210 T790M/C797S/L858R): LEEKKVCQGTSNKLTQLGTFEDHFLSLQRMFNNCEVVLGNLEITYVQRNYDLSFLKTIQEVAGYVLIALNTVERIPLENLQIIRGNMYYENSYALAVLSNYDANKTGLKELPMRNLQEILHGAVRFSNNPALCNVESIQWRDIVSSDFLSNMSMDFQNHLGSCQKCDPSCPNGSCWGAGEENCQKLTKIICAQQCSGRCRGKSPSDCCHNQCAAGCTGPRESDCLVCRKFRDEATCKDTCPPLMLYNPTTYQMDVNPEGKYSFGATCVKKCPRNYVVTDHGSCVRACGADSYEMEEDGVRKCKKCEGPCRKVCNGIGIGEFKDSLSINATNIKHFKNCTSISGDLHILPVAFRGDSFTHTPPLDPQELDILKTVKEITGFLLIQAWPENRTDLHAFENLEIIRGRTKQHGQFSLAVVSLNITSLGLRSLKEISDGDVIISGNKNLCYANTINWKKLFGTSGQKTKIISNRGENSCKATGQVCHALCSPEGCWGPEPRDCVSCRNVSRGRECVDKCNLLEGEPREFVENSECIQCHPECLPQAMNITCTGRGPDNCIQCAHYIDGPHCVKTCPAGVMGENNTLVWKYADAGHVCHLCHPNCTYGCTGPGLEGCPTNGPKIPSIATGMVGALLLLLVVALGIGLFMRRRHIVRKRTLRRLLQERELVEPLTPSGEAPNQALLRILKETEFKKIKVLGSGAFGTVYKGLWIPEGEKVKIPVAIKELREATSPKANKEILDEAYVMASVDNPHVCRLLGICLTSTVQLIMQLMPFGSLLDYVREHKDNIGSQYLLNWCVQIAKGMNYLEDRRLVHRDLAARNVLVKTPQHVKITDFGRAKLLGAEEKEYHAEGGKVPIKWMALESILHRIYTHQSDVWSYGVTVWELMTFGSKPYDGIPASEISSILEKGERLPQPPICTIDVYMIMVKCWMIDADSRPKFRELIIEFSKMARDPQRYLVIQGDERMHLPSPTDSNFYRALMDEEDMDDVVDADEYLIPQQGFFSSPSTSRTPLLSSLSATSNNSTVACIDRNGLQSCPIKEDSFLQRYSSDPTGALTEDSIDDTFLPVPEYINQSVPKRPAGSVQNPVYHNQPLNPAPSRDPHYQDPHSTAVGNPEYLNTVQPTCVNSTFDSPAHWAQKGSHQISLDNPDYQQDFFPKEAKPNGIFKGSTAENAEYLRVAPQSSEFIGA

As usually defined, the half-life is how long it takes for the measured level to halve. Low values mean fast loss, high ones slow loss. As to `COc1cc(N2CCN(CC3CCN(CC(=O)Nc4cccc5c4CN(C4CCC(=O)NC4=O)C5=O)CC3)CC2)ccc1Nc1ncc(Cl)c(Nc2ccccc2N(C)S(C)(=O)=O)n1` (stereo not shown) [Compound 26, 2-(4-((4-(4-((5-chloro-4-((2-(N-methylmethylsulfonamido)phenyl)amino)pyrimidin-2-yl)amino)-3-methoxyphenyl)piperazin-1-yl)methyl)piperidin-1-yl)-N-(2-(2,6-dioxopiperidin-3-yl)-1-oxoisoindolin-4-yl)acetamide], in series [1], the half-life is 9.29 h and the AUC(0-t) is 32 ng·h/mL. The “LTC (EGFR^L858R+T790M+C797S) protein degradation” value (shortened to “LTC”) in series [2] is reported as “++ (Protein degradation > 80%)”. The “DTC (EGFR^del19+T790M+C797S) protein degradation” value (shortened to “DTC”) in series [3] was “++ (Protein degradation > 80%)”.

As to `CN(c1ccccc1Nc1nc(Nc2ccc(N3CCN(CC4CCN(C(=O)COc5cccc6c5C(=O)N(C5CCC(=O)NC5=O)C6=O)CC4)CC3)c(F)c2)ncc1Cl)S(C)(=O)=O` (stereo not shown) [Compound 43, N-(2-((5-chloro-2-((4-(4-((1-(2-((2-(2,6-dioxopiperidin-3-yl)-1,3-dioxoisoindolin-4-yl)oxy)acetyl)piperidin-4-yl)methyl)piperazin-1-yl)-3-fluorophenyl)amino)pyrimidin-4-yl)amino)phenyl)-N-methylmethanesulfonamide], in series [1], the half-life was 5.07 h and the AUC(0-t) is 346 ng·h/mL. For the same compound, the “LTC” value in series [2] was “++ (Protein degradation > 80%)”. Also, the “DTC” value in series [3] was “++ (Protein degradation > 80%)”.

As to `COc1cc(N2CCC(N3CCN(CCNc4cccc5c4C(=O)N(C4CCC(=O)NC4=O)C5=O)CC3)CC2)ccc1Nc1ncc(Cl)c(Nc2ccccc2N(C)S(C)(=O)=O)n1` (stereo not shown) [Compound 45, N-(2-((5-chloro-2-((4-(4-(4-(2-((2-(2,6-dioxopiperidin-3-yl)-1,3-dioxoisoindolin-4-yl)amino)ethyl)piperazin-1-yl)piperidin-1-yl)-2-methoxyphenyl)amino)pyrimidin-4-yl)amino)phenyl)-N-methylmethanesulfonamide], in series [1], the half-life is 3.45 h and the AUC(0-t) came to 992 ng·h/mL. In series [2], the “LTC” value is listed as “++ (Protein degradation > 80%)”. Besides, the “DTC” value in series [3] was “++ (Protein degradation > 80%)”.

`COc1cc(N2CCC(N3CCN(CC(=O)Nc4ccc5c(c4)CN(C4CCC(=O)NC4=O)C5=O)CC3)CC2)ccc1Nc1ncc(Cl)c(Nc2ccccc2N(C)S(C)(=O)=O)n1` (stereo not shown) [Compound 47, 2-(4-(1-(4-((5-chloro-4-((2-(N-methylmethylsulfonamido)phenyl)amino)pyrimidin-2-yl)amino)-3-methoxyphenyl)piperidin-4-yl)piperazin-1-yl)-N-(2-(2,6-dioxopiperidin-3-yl)-1-oxoisoindolin-5-yl)acetamide]: in series [1], the half-life was 4.13 h and the AUC(0-t) was 134 ng·h/mL. In series [2], the “LTC” value is “++ (Protein degradation > 80%)”. Besides, the “DTC” value in series [3] is given as “++ (Protein degradation > 80%)”.

Regarding `COc1cc(N2CCC(N3CCN(CCC4CCN(c5ccc6c(c5)C(=O)N(C5CCC(=O)NC5=O)C6=O)CC4)CC3)CC2)ccc1Nc1ncc(Cl)c(Nc2ccccc2N(C)S(C)(=O)=O)n1` (stereo not shown) [Compound 51, N-(2-((5-chloro-2-((4-(4-(4-(2-(1-(2-(2,6-dioxopiperidin-3-yl)-1,3-dioxoisoindolin-5-yl)piperidin-4-yl)ethyl)piperazin-1-yl)piperidin-1-yl)-2-methoxyphenyl)amino)pyrimidin-4-yl)amino)phenyl)-N-methylmethanesulfonamide], in series [1], the half-life is 2.81 h and the AUC(0-t) came out at 635 ng·h/mL. For the same compound, in series [2], the “LTC” value is listed as “++ (Protein degradation > 80%)”. The “DTC” value in series [3] is “++ (Protein degradation > 80%)”.

On to `COc1cc(N2CCN(CC3CCN(C(=O)COc4cccc5c4C(=O)N(C4CCC(=O)NC4=O)C5=O)CC3)CC2)ccc1Nc1ncc(Cl)c(Nc2ccccc2N(C)S(C)(=O)=O)n1` (stereo not shown) [Compound 53, N-(2-((5-chloro-2-((4-(4-((1-(2-((2-(2,6-dioxopiperidin-3-yl)-1,3-dioxoisoindolin-4-yl)oxy)acetyl)piperidin-4-yl)methyl)piperazin-1-yl)-2-methoxyphenyl)amino)pyrimidin-4-yl)amino)phenyl)-N-methylmethanesulfonamide], for which, in series [1], the half-life is 3.65 h and the AUC(0-t) turned out to be 44 ng·h/mL. The “LTC” value in series [2] is reported as “++ (Protein degradation > 80%)”. The “DTC” value in series [3] was “++ (Protein degradation > 80%)”.

Consider `COc1cc(N2CCN(CC3CCN(C(=O)CCc4cccc5c4C(=O)N(C4CCC(=O)NC4=O)C5=O)CC3)CC2)ccc1Nc1ncc(Cl)c(Nc2ccccc2N(C)S(C)(=O)=O)n1` (stereo not shown) [Compound 54, N-(2-((5-chloro-2-((4-(4-((1-(3-(2-(2,6-dioxopiperidin-3-yl)-1,3-dioxoisoindolin-4-yl)propanoyl)piperidin-4-yl)methyl)piperazin-1-yl)-2-methoxyphenyl)amino)pyrimidin-4-yl)amino)phenyl)-N-methylmethanesulfonamide], for which, in series [1], the half-life was 6.12 h and the AUC(0-t) came out at 840 ng·h/mL. In series [2], the “LTC” value is reported as “++ (Protein degradation > 80%)”. Also, the “DTC” value in series [3] was “++ (Protein degradation > 80%)”.

As to `COc1cc(N2CCN(CC3CCN(C(=O)CNc4cccc5c4C(=O)N(C4CCC(=O)NC4=O)C5=O)CC3)CC2)ccc1Nc1ncc(Cl)c(Nc2ccccc2N(C)S(C)(=O)=O)n1` (stereo not shown) [Compound 65, N-(2-((5-chloro-2-((4-(4-((1-((2-(2,6-dioxopiperidin-3-yl)-1,3-dioxoisoindolin-4-yl)glycyl)piperidin-4-yl)methyl)piperazin-1-yl)-2-methoxyphenyl)amino)pyrimidin-4-yl)amino)phenyl)-N-methylmethanesulfonamide], in series [1], the half-life was 4.01 h and the AUC(0-t) was 607 ng·h/mL. In addition, in series [2], the “LTC” value is recorded as “++ (Protein degradation > 80%)”. The “DTC” value in series [3] is “++ (Protein degradation > 80%)”.

As for `COc1cc(N2CCN(CC3CCN(C(=O)[C@@H](C)Oc4cccc5c4C(=O)N(C4CCC(=O)NC4=O)C5=O)CC3)CC2)ccc1Nc1ncc(Cl)c(Nc2ccccc2N(C)S(C)(=O)=O)n1` (stereo partly shown) [Compound 69], in series [1], the “AUC compared to the corresponding compounds” value was “significantly improved AUC”, the half-life was 3.22 h and the AUC(0-t) worked out at 280 ng·h/mL. Moreover, in series [2], the “LTC” value is on record as “++ (Protein degradation > 80%)”. The “DTC” value in series [3] was “++ (Protein degradation > 80%)”.

As for `COc1cc(N2CCN(CC3CCN(C(=O)[C@H](C)Nc4cccc5c4C(=O)N(C4CCC(=O)NC4=O)C5=O)CC3)CC2)ccc1Nc1ncc(Cl)c(Nc2ccccc2N(C)S(C)(=O)=O)n1` (stereo partly drawn) [Compound 70, N-(2-((5-chloro-2-((4-(4-((1-((2-(2,6-dioxopiperidin-3-yl)-1,3-dioxoisoindolin-4-yl)-L-alanyl)piperidin-4-yl)methyl)piperazin-1-yl)-2-methoxyphenyl)amino)pyrimidin-4-yl)amino)phenyl)-N-methylmethanesulfonamide], in series [1], the “AUC compared to the corresponding compounds” value is “significantly improved AUC”, the half-life is 3.07 h and the AUC(0-t) was determined as 598 ng·h/mL. Also, in series [2], the “LTC” value is on record as “++ (Protein degradation > 80%)”. In series [3], the “DTC” value is listed as “++ (Protein degradation > 80%)”.

As for `COc1cc(N2CCC(N3CCN(CC4CCN(c5ccc6c(c5)C(=O)N(C5CCC(=O)NC5=O)C6=O)CC4)CC3)CC2)ccc1Nc1ncc(Cl)c(Nc2ccccc2N(C)S(C)(=O)=O)n1` (stereo not shown) [Compound 71, N-(2-((5-chloro-2-((4-(4-(4-((1-(2-(2,6-dioxopiperidin-3-yl)-1,3-dioxoisoindolin-5-yl)piperidin-4-yl)methyl)piperazin-1-yl)piperidin-1-yl)-2-methoxyphenyl)amino)pyrimidin-4-yl)amino)phenyl)-N-methylmethanesulfonamide], in series [1], the half-life is 7.77 h and the AUC(0-t) was 1230 ng·h/mL. The “LTC” value in series [2] is “++ (Protein degradation > 80%)”. The “DTC” value in series [3] is reported as “+ (Protein degradation 20~80%)”.
